Reference: US20100093863A1, “USE OF CITRULLINE FOR PREVENTING AN INCREASE IN PROTEIN CARBONYLATION AND FOR TREATING DISEASES RESULTING THEREFROM” (UNIVERSITE PARIS DESCARTESURE, priority 2007, published 2010)

Assays:
[1] = system: carbonylation of muscle proteins; assay: Carbonylation of muscle proteins (DNPH assay, tibialis anterior) in malnourished-renourished rats; assay type: in vivo, Sprague-Dawley rats; conditions: rats aged 19 months, 12 weeks restricted diet, renourished one week with diet enriched with citrulline (5 g/kg/d); FIG. 1 column 4 versus column 3
Experimental: (§1) Male Sprague-Dawley rats (Charles River Laboratoires, L'Arbresles, France) aged 19 months are placed in individual cages in a thermostatically-controlled atmosphere (23°±1° C.) and subjected to a 12-h light-darkness cycle (darkness from 8 h to 20 h). The manager of the programme is authorized (no. 75.522) by the Ministry of Agriculture and Forestry to carry out this type of experiment. Moreover, the use and the treatment of the laboratory animals comply with legislation (D2001-486) and are in accordance with European legislation (Official Journal of the European Community L358 Dec. 18, 1986).
(§2) The rats are acclimatized for 2 weeks during which spontaneous food consumption is measured. […]
The processes of oxidation of the proteins affecting the structure of the amino acids which comprise them are complex and all give rise to the formation of carbonyl groups. For this reason it was decided to carry out an overall evaluation of the oxidation of the muscle proteins by quantifying the carbonylated derivatives from a sample of 300 mg of tibialis anterior. […] The solubilized proteins are separated into two equal fractions in order to have two cups containing the same quantity of proteins (1-1.5 mg/ml). One of the cups serves as a blank and the other to quantify the carbonyl groups. […]

[2] = system: carbonylation of the cerebral proteins; assay: Carbonylation of cerebral proteins (DNPH assay, brain) in elderly rats; assay type: in vivo, Sprague-Dawley rats
Experimental: as §1, with “Laboratoires, L′Arbresles,” for “Laboratoires, L'Arbresles,”, “aged 25” for “aged 19”, “(23°±1° C.),” for “(23°±1° C.)”, “a 12-hour” for “a 12-h”
as §2
AANE group (n=4): the animals receive a standard diet rendered isonitrogenous compared with that of the CIT group by the addition of non-essential amino acids (alanine, asparagine, glycine, serine, histidine, and proline in equimolar quantities) for 1 month. […]
The processes of oxidation of the proteins affecting the structure of the amino acids which comprise them are complex and all give rise to the formation of carbonyl groups. For this reason it was decided to carry out an overall evaluation of the oxidation of the muscle proteins by quantifying the carbonylated derivatives from a sample of 1 g of brain. […] One of the cups serves as a blank and the other to quantify the carbonyl groups. […]

Compound: NC(=O)NCCCC(N)C(=O)O (stereo not drawn) [citrulline, 2-amino-5-(carbamoylamino)pentanoic acid]
- increase in the carbonylation of muscle proteins accompanying malnutrition-renutrition [1]: this phenomenon disappears completely
- Carbonylated proteins ([2]; brain of rats aged 25 months, enriched standard diet for 1 month (CIT 1 g/kg/d; AANE isonitrogenous), Average ± ASD): 164 ± 12 µmol/g
- decrease in the carbonylation of the cerebral proteins ([2]; elderly healthy rats, diet enriched with CIT (1 g/kg/d, 1 month) versus AANE group): ~10%
